Data set [1] concerns plasma protein. Kind of data set: Plasma protein binding (dialysis), rat. It is filed as in vitro ADME. The procedure: (§1) A compound solution (1 mM in DMSO) (5 μL), according to the invention is added to the respective plasma matrices of rat or human or mouse (1 ml).
(§2) Add 150 μl of phosphate buffer to receiving side of the dialysis well. […] Precipitate with Acetonitrile and dilute samples prior to analysis in 1.5 ml polypropylene tubes. Remove 50 μl from the sample side of dialysis well and add 50 μl of phosphate buffer+300 μl of acetonitrile containing IS. Remove 50 μl from the buffer side of the dialysis well and add 50 μl of respective matrix plasma+300 μl of ACN. Then vortexed and centrifuged for 5 min, and supernatant is taken and injected into LCMS.
(§3) Different test concentration ranging from 0.1 μM to 20 μM are made in methanol:water (90:10). Test solutions are added to the premixed matrix containing plasma:phosphate buffer (50:50). Precipitate with 300 μl of ice cold acetonitrile containing IS, vortexes and centrifuged. Supernatant is taken and injected into LCMS.
(§4) Percentage of plasma protein binding was obtained via Equation (2): % Fraction unbound=(concentration on the buffer side/concentration on the sample side)*100

The subject of the next data set is caco2 system. Kind of data set: Permeability in caco2 system. It is filed as in vitro ADME. As to conditions: caco2, efflux >2. In general terms: Passage across Caco-2 layers is used to estimate intestinal permeability.
Data set [2] can be described thus: Permeability in caco2 system. It is filed as in vitro ADME. Particulars: human, Caco-2; caco2.
The test system of data set [3] is plasma protein. Kind of data set: Plasma protein binding (dialysis), human. It is filed as in vitro ADME. On the procedure:
as §1, §2, §3, §4

A short description of data set [4]: Stability in buffer at various pH (LC-MS/MS). It is filed as physicochemical. As to conditions: for Analyte Peak Area (counts): 24 hr room temperature, replicates, Standard average 39849828. The procedure: (§5) On completion of incubation period, the solution is centrifuged and supernatant is taken. To the supernatant, ice cold acetonitrile containing IS is added, vortexed and injected into LCMS/MS.
(§6) API 4000, ESI Agilent 1100 column: Gemini Nx 100 mm×4.6 mm 5.μ; column temperature: 30° C.; eluent A: 0.1% formic acid in water, eluent B: acetonitrile; gradient: 0-2.5 min 95% A, 5% B; 2.5-2.6 min 5% A, 95% B; 2.6-4.2 min 95% A, 5% B; flow rate: 0.8 ml/min; ESI. Q1:464.098, Q3:144.255
Prepared 0.1 mol of citric acid and 0.2 mol of di sodium hydrogen phosphate in water. Buffer pH 2.2, 4 and 7.8 are prepared using citric acid and disodium hydrogen phosphate by adjusting the pH with 0.1N HCl or 1N NaOHpH 7.4:8.89 g disodium hydrogen phosphate (Solution A) add to 1 litre of water, 1.5601 g sodium di-hydrogen phosphate (solution B) are made up to 1 liter with water; […] are mixed.

Data set [5] concerns plasma protein. Kind of data set: Plasma protein binding (dialysis), mouse. The data set is classed as in vitro ADME. The procedure: as §1, §2, §3, §4
Data set [6] can be described thus: In vitro stability in human plasma (LC-MS). It is filed as in vitro ADME. On the procedure: The final concentration of the test compound in the assay is 5 micromolar. […] C. The 100 microlitres of aliquot at time point was removed and diluted with ice cold acetonitrile containing IS (200 µL) to stop the reactions. Samples are centrifuged at 10,000 RPM for 5 minutes to precipitate proteins. Supernatants are transferred to micro centrifuge tubes and stored at −20° C. for analysis of LC/MS/MS. The percent parent remaining of the test substance is calculated as ratio of peak area at each time point to peak area ratio at zero min, multiplied by 100.
as §6

Data set [7] in a line: Stability in simulating gastric fluid (SGF). It is filed as physicochemical. As to conditions: SGF pH 2.2, up to 120 min. The procedure:
as §5, §6
SIF/SGF: 2.38 g of SIF original powder (biorelavant media) is dissolved in 1 L of milliQ water. The pH of the solution is adjusted for SIF (7.4) and SGF (2.2) with 0.1N HCl. The ratios of the peak areas (F) at the respective time points in relation to the peak areas at the starting time are calculated. […] The peak area (F) is directly correlated to the amount of test compound which is quantified by the LC MS method.
In simulating intestinal and gastric fluid, the area of the formula B compared with zero minute area to 120 min.

A short description of data set [8]: Anticoagulant activity (PT, APTT) in human plasma. It is filed as biochemical. Particulars: 0.1 to 1.0 μg/mL, PT and APTT. On the procedure:
The anticoagulant action of the test substance (compound formula-B) and rivaroxaban was determined in vitro using human plasma. The human plasma used for this experiment was separated from the blood collected in sodium citrate as anticoagulant. The prothrombin time (PT) was determined by using a commercial test kit (Neoplastin from Stagid) and APTT was determined using (Synthasil kit by IL). […] Coagulation was then started by addition of thromboplastin, and time when coagulation occurred was determined. The concentration of test substance which effected a doubling of prothrombin time was determined.

The values that follow come from patent publication US20160251342A1, “ALDEHYDE DERIVATIVE OF SUBSTITUTED OXAZOLIDINONES” (WANBURY LTD., priority 2012, published 2016).

Several values for one entry are separate records, joined by “and”; a condition that tells them apart may be missing. Equal entries are not always repeated.

The Papp A→B is how fast a substance crosses the layer from the apical side. `O=CN(C[C@H]1CN(c2ccc(N3CCOCC3=O)cc2)C(=O)O1)C(=O)c1ccc(Cl)s1` [compound formula (B), 5-chloro-N-formyl-N-({(5S)-2-oxo-3-[4-(3-oxomorpholin-4-yl)phenyl]-1,3-oxazolidin-5-yl}methyl)thiophene-2-carboxamide]: the “Observation: amount of test product” value with plasma protein [1], with plasma protein [3] and in the data set with plasma protein [5] was “Not quantificable amount of test” throughout. Also, the “Observation: formed Rivaroxaban bound to plasma protein” value with plasma protein [1] (phrase continues 'High bound' in next line) is given as “Rivaroxaban found to be moderate-”; in the data set with plasma protein [3], “Rivaroxaban found to be High”; with plasma protein [5], “moderate-High bound to plasma”. In addition, the “Interpretation: Pgp substrate” value in the data set with caco2 system was “observed to be a Pgp substrate”. The compound also displayed an apical-to-basolateral permeability (Papp A→B) in [2] of 17.4 ×10⁻⁶ cm/s. Moreover, the “Analyte Peak Area (counts)” value was 20975674 counts and 35654402 counts in data set [4] (pH 2.1 buffer); 42841292 counts and 26917087 counts in [4] (pH 4 buffer); 35312 counts and 42503 counts in [4] (pH 7.8 buffer). Further, the “Stability in varying pH buffer conditions” value in data set [4] (varying pH buffers, rivaroxaban formation observed) was “degraded”. Further, in [6], the “Amount of test product detected (conversion to rivaroxaban from zero min)” value is “Neglible”. For the same compound, in [7], the “Conclusion (stability in SGF)” value is on record as “is stable”. Also, the “Anticoagulant activity” value in [8] is recorded as “significant anticoagulant activity”.
